Measured values from publication PMC11763059, “GENI as an AMPK Activator Binds α and γ Subunits and Improves the Memory Dysfunction of Alzheimer’s Disease Mouse Models via Autophagy and Neuroprotection” (Antioxidants, 2025).

How the values were obtained:
[1] = tested on: T1, AMPK α subunit ASP166 mutated into ALA166; experiment: SPR analysis, AMPK α subunit D166 replaced with A166; type: binding
T1 construct: His (N); made in house
Procedure: Mammalian AMPK subunits (His-α1, β1, and γ1) were cloned into a pET-3d vector, and protein expression and purification were similar to the literature.
SPR analysis was performed with a Biacore T200 instrument (GE Healthcare). Firstly, the purred His-tagged AMPK containing α1β1γ1 protein was captured onto an activated carboxymethylated 5 (CM5) chip using amine coupling to levels ranging from 4000 RU to 6000 RU. Secondly, GENI was dissolved in PBS-P buffer solution (0.05% (v/v) Tween 20 and PBS), and the concentration of GENI was 64 μM. Thirdly, the solution of GENI was diluted to 32 μM, 16 μM, 8 μM, 4 μM, 2 μM, 1 μM and 0.5 μM with PBS-P buffer solution. The sample was filtered by pumping through a […] membrane. A gradient concentration of GENI was injected at a flow rate of 30 μL/min in a running buffer (0.05% (v/v) Tween 20 and PBS). The data were analyzed with Biacore evaluation software (T200 version 2.0) and fitted to the 1:1 Langmuir binding model, and the kinetic parameters were derived.
The non-covalent interaction between drugs and proteins is an important way to exert drug efficacy, and its mode of action and binding affinity usually determine the utilization and biological activity of drugs. AMPK is a heterotrimer complex consisting of an α subunit containing the kinase domain and two regulatory subunits (β- and γ-). […]

[2] = mouse, in vivo
Description: At the end of the animal experiment, the epididymis fat, heart, liver, spleen, and kidney of the mice were removed for weighing analysis.

[3] = tested on: D-gal-induced AD mice; experiment: Behaviour tests in D-gal-induced AD mice; type: in vivo
Procedure: Each group comprised 10 mice. […] Dosing lasted for 10 weeks. […] The mice were sacrificed after 10 weeks of administration.
The Y-maze is mainly used to study the spatial working memory ability of rodents. The Y-maze consisted of three equal-length arms (50 cm × 18 cm × 35 cm), and the angle between each two arms was 120 degrees. The mice were placed at the end of any arm of the Y-maze and allowed to explore freely for 8 min. The behavioral changes including the total number of entries and alternation (successively entering all three arms of the Y-maze once in turn) were recorded. Percentage altercation = alternation/(entries-2) × 100%. The Y-maze could effectively reflect the ability of animals to recognize and remember novel environments.
NOR was used to detect memory in rodents. We prepared a 40 × 40 × 40 cm square box, camera equipment, and behavioral analysis software. We chose three objects A, B, and C, where objects A and B were exactly the same, and object C was very different from objects A and B. After the start of the experiment, the mice were allowed to acclimate freely in the experimental apparatus for 10 min. Objects A and B were placed into the box, and the mice were allowed to explore for 5 min. We then recorded the exploration time and times. After 1 h, A and C or B and C were placed into the box. After letting the mice explore for 5 min, we recorded the exploration time of the original object and the new object. Discrimination index = exploration time of new objects/total exploration time × 100%.
The MWM installation consisted of a circular pool (120 cm in diameter and 50 cm in height), camera equipment, and a computer analysis system. In the first stage, the platform position was fixed, and mice were placed into the pool from any three of the four origins on the pool facing away from the pool wall. The time when it took for the mouse to find the platform within 120 s, called escape latency, was recorded. The training period lasted 4 days. The escape latency of the mice was recorded daily, and the average value was used as an index to evaluate the ability of learning and memory. On the 5th day, the platform was evacuated by the experimenter. The mice were placed against the platform into the water from any water entry point, and they were allowed to swim freely for 60 s. We then recorded the number of times that they crossed the platform.
The rationale for the three-box social test is based on the fact that mice are naturally gregarious and tend to explore new objects. The experimental device consisted of three rectangular boxes, each with a size of 19×45 cm, with a channel in the middle to allow the three boxes to connect with one another. Two metal cages of the same size were placed in the centre of the left and right boxes. Firstly, the mice were placed in the box for 10 min. Secondly, stranger 1 mouse was randomly placed in the metal cage in the left or right box, and the metal cage in the other box was empty. The experimental mice were placed in the box for 10 min. The number and duration of direct contact between the experimental mice and stranger 1 were recorded. Thirdly, strange 2 mice were placed in the empty metal cage of the second stage experiment and then recorded for 10 min. We observed the time and number of contacts between stranger 1 and stranger 2 and calculated the social preference and sociability index.

[4] = GENI administration group compared with the D-gal model group

For `CC(C)CCOC(=O)C1=CO[C@@H](O[C@@H]2O[C@H](CO)[C@@H](O)[C@H](O)[C@H]2O)C2C(CO)=CCC12` (some centres unmarked) [GENI, Geniposidic 4-isoamyl ester], the “dose-dependent response in SPR” value [1] was “No significant dose-dependent response”, the “myocardial hypertrophy and toxic side effects” value [2] was “did not find” and the “rate of alternating arms in the Y maze test” value ([3]; GENI 25 and 50 mg/kg i.g., versus D-gal group) was “significantly increase”. For the same compound, the “escape latency in the Morris water maze test” value [3, 4] was “significantly reduced”, the “number of crossing platforms in the Morris water maze test” value [3, 4] was “significantly increased” and the “cognitive index and object recognition index in the NOR experiment” value ([3]; GENI i.g., versus D-gal group) was “significantly increased”. For the same compound, the “sociability and social preferences (three-box social experiment)” value ([3]; GENI-administered groups) was “significant social skills and social preferences” and the “optimal dose for anti-AD effect” value ([3]; comparable to the effect of DON at a dose of 3 mg/kg) was 25 mg/kg.
